# Legend:
# Test in all cases: In vitro antibacterial evaluation: minimum inhibitory concentration (MIC), broth dilution method
# Assay type in all cases: cell-based
# [1] = tested on: Enterococcus sp.
# Summary of the method: (§1)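 First, organisms are seeded at 5×10^5 CFU/mL into Muller-Hinton II […]. Next, antibiotic is applied across 64-0.06 μg/mL by broth dilution (NCCLS M7-A2). Finally, the lowest inhibitory concentration is recorded as MIC.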
# [2] = tested on: Escherichia coli
# Summary of the method: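 Using Muller-Hinton II […] and an inoculum of 5×10^5 CFU/mL, antibiotic dilutions from 64 down to 0.06 μg/mL were tested following NCCLS M7-A2. The MIC is the lowest concentration inhibiting growth, including in methicillin-, penicillin- or vancomycin-resistant clinical isolates.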
# [3] = tested on: Staphylococcus sp.
# Summary of the method: as §1
# [4] = tested on: Streptococcus sp.
# Summary of the method: as §1
# [5] = broth dilution, inoculum 5×10^5 CFU/mL, 18 hours at 35° C.
# [6] = broth dilution, 18 hours at 35° C.
structure (smiles),measurement,setting,value
N=C1NCC(C(O)C2NC(=O)C(CC3CCC(OC4OC(CO)C(OC5OC6COC7(OC6C(O)C5O)C5CC6CC(C5)CC7C6)C(O)C4O)CC3)NC(=O)C(CC3CCCCC3)NC(=O)CNC(=O)C(CO)NC(=O)C(C(O)C3CNC(=N)N3C3OC(CO)C(O)C(O)C3O)NC2=O)N1 (centres unmarked) [Example 223],MIC Enterococcus avium (GC 4558),"[1]; Enterococcus avium (GC 4558), 18 hours at 35° C.",64 µg/mL
same,MIC Enterococcus faecalis (ATCC 29212),"[1]; Enterococcus faecalis (ATCC 29212), 18 hours at 35° C.",>64 µg/mL
same,MIC Enterococcus faecalis (GC 2242),"[1]; Enterococcus faecalis (GC 2242), 18 hours at 35° C.",>64 µg/mL
same,MIC Enterococcus faecalis (GC 2691),"[1]; Enterococcus faecalis (GC 2691), 18 hours at 35° C.",>64 µg/mL
same,MIC Enterococcus faecalis (GC 3059),"[1]; Enterococcus faecalis (GC 3059), 18 hours at 35° C.",>64 µg/mL
same,MIC Enterococcus faecalis (GC 4552),"[1]; Enterococcus faecalis (GC 4552), 18 hours at 35° C.",>64 µg/mL
same,MIC Enterococcus faecalis (GC 4553),"[1]; Enterococcus faecalis (GC 4553), 18 hours at 35° C.",64 µg/mL
same,MIC Enterococcus faecalis (GC 4554),"[1]; Enterococcus faecalis (GC 4554), 18 hours at 35° C.",>64 µg/mL
same,MIC Enterococcus faecalis (GC 6189),"[1]; Enterococcus faecalis (GC 6189), 18 hours at 35° C.",>64 µg/mL
same,MIC Enterococcus faecium (GC 2243),"[1]; Enterococcus faecium (GC 2243), 18 hours at 35° C.",>64 µg/mL
same,MIC Enterococcus faecium (GC 4556),"[1]; Enterococcus faecium (GC 4556), 18 hours at 35° C.",>64 µg/mL
same,MIC Enterococcus faecium (GC 4557),"[1]; Enterococcus faecium (GC 4557), 18 hours at 35° C.",64 µg/mL
same,MIC Enterococcus avium (GC 4558),[1]; [5],64 µg/mL
same,MIC Enterococcus faecalis (ATCC 29212),[1]; [5],>64 µg/mL
same,MIC Enterococcus faecalis (GC 2242),[1]; [5],>64 µg/mL
same,MIC Enterococcus faecalis (GC 2691),[1]; [5],>64 µg/mL
same,MIC Enterococcus faecalis (GC 3059),[1]; [5],>64 µg/mL
same,MIC Enterococcus faecalis (GC 4552),[1]; [5],>64 µg/mL
same,MIC Enterococcus faecalis (GC 4553),[1]; [5],64 µg/mL
same,MIC Enterococcus faecalis (GC 4554),[1]; [5],>64 µg/mL
same,MIC Enterococcus faecalis (GC 6189),[1]; [5],>64 µg/mL
same,MIC Enterococcus faecium (GC 2243),[1]; [5],>64 µg/mL
same,MIC Enterococcus faecium (GC 4556),[1]; [5],>64 µg/mL
same,MIC Enterococcus faecium (GC 4557),[1]; [5],64 µg/mL
same,MIC Escherichia coli (ATCC 25922),"[2]; Escherichia coli (ATCC 25922), 18 hours at 35° C.",>64 µg/mL
same,MIC Escherichia coli (GC 4559),"[2]; Escherichia coli (GC 4559), 18 hours at 35° C.",>64 µg/mL
same,MIC Escherichia coli (GC 4560),"[2]; Escherichia coli (GC 4560), 18 hours at 35° C.",32 µg/mL
same,MIC Staphylococcus aureus (ATCC 29213),[3]; strain ATCC 29213,>64 µg/mL
same,MIC Staphylococcus aureus (GC 1131),[3]; strain GC 1131,>64 µg/mL
same,MIC Staphylococcus aureus (GC 3051),[3]; strain GC 3051,64 µg/mL
same,MIC Staphylococcus aureus (GC 3053),[3]; strain GC 3053,>64 µg/mL
same,MIC Staphylococcus aureus (GC 4541),[3]; strain GC 4541,64 µg/mL
same,MIC Staphylococcus aureus (GC 4542),[3]; strain GC 4542,64 µg/mL
same,MIC Staphylococcus aureus-SMITH (GC 4543),[3]; strain GC 4543,64 µg/mL
same,MIC Staphylococcus aureus (GC 4544),[3]; strain GC 4544,64 µg/mL
same,MIC Staphylococcus aureus (GC 4545),[3]; strain GC 4545,64 µg/mL
same,MIC Staphylococcus haemolyticus (GC 4546),[3]; strain GC 4546,64 µg/mL
same,MIC Coagulase Negative Staphylococcus (GC 4547),[3]; strain GC 4547,64 µg/mL
same,MIC Coagulase Negative Staphylococcus (GC 4548),[3]; strain GC 4548,64 µg/mL
same,MIC Coagulase Negative Staphylococcus (GC 4549),[3]; strain GC 4549,64 µg/mL
same,MIC Coagulase Negative Staphylococcus (GC 4551),[3]; strain GC 4551,64 µg/mL
same,MIC Streptococcus agalactiae (GC 4564),"[4]; Streptococcus agalactiae (GC 4564), 18 hours at 35° C.",>64 µg/mL
same,MIC Streptococcus pneumoniae (ATCC 6301),"[4]; Streptococcus pneumoniae (ATCC 6301), 18 hours at 35° C.",64 µg/mL
same,MIC Streptococcus pneumoniae (GC 1894),"[4]; Streptococcus pneumoniae (GC 1894), 18 hours at 35° C.",32 µg/mL
same,MIC Streptococcus pneumoniae (GC 4565),"[4]; Streptococcus pneumoniae (GC 4565), 18 hours at 35° C.",>64 µg/mL
same,MIC Streptococcus pyogenes (GC 4563),"[4]; Streptococcus pyogenes (GC 4563), 18 hours at 35° C.",64 µg/mL
same,MIC Streptococcus agalactiae (GC 4564),[4]; [5],>64 µg/mL
same,MIC Streptococcus pneumoniae (ATCC 6301),[4]; [5],64 µg/mL
same,MIC Streptococcus pneumoniae (GC 1894),[4]; [5],32 µg/mL
same,MIC Streptococcus pneumoniae (GC 4565),[4]; [5],>64 µg/mL
same,MIC Streptococcus pyogenes (GC 4563),[4]; [5],64 µg/mL
"CC(C)=CCCC(C)=CCN=C1NCC(C(O)C2NC(=O)C(C(O)C3CNC(=N)N3)NC(=O)C(Cc3ccc(OC4OC(CO)C(OC5OC6COC7(OC6C(O)C5O)C5CC6CC(C5)CC7C6)C(O)C4O)cc3)NC(=O)C(C(C)c3ccccc3)NC(=O)CNC(=O)C(CO)NC2=O)N1C1OC(CO)C(O)C(O)C1O (stereo not drawn) [Example 82, Cyclo[glycyl-β-methylphenylalanyl-O-[4-O-[4,6-O-(2-adamantylidene)hexopyranosyl]hexopyranosyl]tyrosyl-3-(2-iminoimidazolidin-4-yl)seryl-3-[1-[(3,7-dimethylocta-2,6-dien-1-yl)-imino]-3-hexopyranosylimidazolidin-4-yl]serylseryl]]",MIC Enterococcus faecalis (GC 2242),"[1]; Enterococcus faecalis (GC 2242), broth dilution, 18 hours at 35° C.",16 µg/mL
same,MIC Enterococcus faecalis (GC 2691),"[1]; Enterococcus faecalis (GC 2691), broth dilution, 18 hours at 35° C.",16 µg/mL
same,MIC Enterococcus faecalis (GC 3059),"[1]; Enterococcus faecalis (GC 3059), broth dilution, 18 hours at 35° C.",16 µg/mL
same,MIC Enterococcus faecalis (ATCC 29212),[1]; strain ATCC 29212,16 µg/mL
same,MIC Enterococcus faecalis (GC 2242),[1]; strain GC 2242,16 µg/mL
same,MIC Enterococcus faecium (GC 2243),[1]; strain GC 2243,8 µg/mL
same,MIC Enterococcus faecalis (GC 2691),[1]; strain GC 2691,16 µg/mL
same,MIC Enterococcus faecalis (GC 3059),[1]; strain GC 3059,16 µg/mL
same,MIC Enterococcus faecalis (GC 4552),[1]; strain GC 4552,16 µg/mL
same,MIC Enterococcus faecalis (GC 4553),[1]; strain GC 4553,8 µg/mL
same,MIC Enterococcus faecalis (GC 4554),[1]; strain GC 4554,32 µg/mL
same,MIC Enterococcus faecium (GC 4556),[1]; strain GC 4556,16 µg/mL
same,MIC Enterococcus faecium (GC 4557),[1]; strain GC 4557,2 µg/mL
same,MIC Enterococcus avium (GC 4558),[1]; strain GC 4558,4 µg/mL
same,MIC Enterococcus faecalis (GC 6189),[1]; strain GC 6189,16 µg/mL
same,MIC Escherichia coli (GC 4560),[2]; strain GC 4560,4 µg/mL
same,MIC Coagulase Negative Staphylococcus (GC 4547),[3]; [6],4 µg/mL
same,MIC Coagulase Negative Staphylococcus (GC 4548),[3]; [6],4 µg/mL
same,MIC Coagulase Negative Staphylococcus (GC 4549),[3]; [6],4 µg/mL
same,MIC Coagulase Negative Staphylococcus (GC 4551),[3]; [6],8 µg/mL
same,MIC Staphylococcus aureus (ATCC 29213),[3]; [6],8 µg/mL
same,MIC Staphylococcus aureus (GC 1131),[3]; [6],16 µg/mL
same,MIC Staphylococcus aureus (GC 3051),[3]; [6],8 µg/mL
same,MIC Staphylococcus aureus (GC 3053),[3]; [6],16 µg/mL
same,MIC Staphylococcus aureus (GC 4541),[3]; [6],8 µg/mL
same,MIC Staphylococcus aureus (GC 4542),[3]; [6],16 µg/mL
same,MIC Staphylococcus aureus (GC 4544),[3]; [6],16 µg/mL
same,MIC Staphylococcus aureus (GC 4545),[3]; [6],8 µg/mL
same,MIC Staphylococcus aureus SMITH (GC 4543),[3]; [6],8 µg/mL
same,MIC Staphylococcus haemolyticus (GC 4546),[3]; [6],4 µg/mL
same,MIC Staphylococcus aureus-SMITH (GC 4543),"[3]; strain SMITH GC 4543, broth dilution, 18 hours at 35° C.",8 µg/mL
same,MIC Streptococcus agalactiae (GC 4564),"[4]; Streptococcus agalactiae (GC 4564), broth dilution, 18 hours at 35° C.",0.5 µg/mL
same,MIC Streptococcus pneumoniae (ATCC 6301),"[4]; Streptococcus pneumoniae (ATCC 6301), broth dilution, 18 hours at 35° C.",2 µg/mL
same,MIC Streptococcus pneumoniae (GC 1894),"[4]; Streptococcus pneumoniae (GC 1894), broth dilution, 18 hours at 35° C.",0.25 µg/mL
same,MIC Streptococcus pneumoniae (GC 4565),"[4]; Streptococcus pneumoniae (GC 4565), broth dilution, 18 hours at 35° C.",2 µg/mL
same,MIC Streptococcus pyogenes (GC 4563),"[4]; Streptococcus pyogenes (GC 4563), broth dilution, 18 hours at 35° C.",1 µg/mL
same,MIC Streptococcus pneumoniae (ATCC 6301),[4]; strain ATCC 6301,2 µg/mL
same,MIC Streptococcus pneumoniae (GC 1894),[4]; strain GC 1894,0.25 µg/mL
same,MIC Streptococcus pyogenes (GC 4563),[4]; strain GC 4563,1 µg/mL
same,MIC Streptococcus agalactiae (GC 4564),[4]; strain GC 4564,0.5 µg/mL
same,MIC Streptococcus pneumoniae (GC 4565),[4]; strain GC 4565,2 µg/mL

# From patent US8247211B2, “Glycopeptide antibiotics” (American Cyanamid Company, priority 2001, dated 2012)
